Results: patent US20220062233A1 (The Board of Trustees of the Leland Stanford Junior …, priority 2018, published 2022)

Columns and labels:
[1] = tested on: Lymphoblastoid cells (GM14044); assay: LBC cell viability (Cell Titer-Glo); assay type: cell-based, human; settings: at the concentration of IC20, 3-day compound treatment
Procedure: Cell viability was determined by Cell Titer-Glo reagent (Promega, PRG9243). After 3-day compound treatment, 15 μl of cell suspension was taken out from plate and incubated with 10 μl of CTG reagent. The values of reaction mixture were detected by Tecan.

wild-type HTT = assay: Wild-type HTT assay in lymphoblastoid cells (LBC), Western blot; assay type: cell-based, human; settings: 3 days compound treatment, read-out: LBC IC20 (nM) wtHTT
Procedure, shortened: (§1)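 HD patient lymphoblastoid cells (GM14044, 250 CAG repeats in mutant allele) treated with compound for 3 days. Lysates normalised by BCA, run on SDS-PAGE and immunoblotted: mutant HTT with anti-polyQ MW1, wild-type HTT with anti-Huntingtin antibody, TBP and tubulin also probed. Band intensities quantified by infrared imaging.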

M2-8 cells = assay: M2-8 Cell viability Assay; assay type: cell-based; settings: at the concentration of 1000 nM
[2] = target: T1, interaction between Supt4h and NGN (subunit of Supt5h) (Homo sapiens, UniProt O00267+P63272); assay: Split Gaussia luciferase complementation assay (M2-8 Luciferase); assay type: cell-based; settings: M2-8 cells
T1 construct: expressed in transfected cells
Procedure, shortened: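 HEK293-derived M2-8 cells inducibly express Supt4h-Gluc1 and NGN-Gluc2 fragments (stabilizing mutations) on RheoSwitch ligand addition; ligand plus compound added 24 h after plating and left 24 h. Cells frozen, lysed with 10 μg/ml native coelenterazine, 1 h room temperature dark; complemented luciferase luminescence read.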

mouse hepatocytes = assay: In vitro metabolic stability in mouse hepatocytes; assay type: in vitro ADME
Procedure: A. In Vitro Metabolic Stability in Hepatocyte
A compound's metabolic stability was assessed using mouse hepatocytes incubated with pre-defined concentration of test articles over several incubation period. The extent of metabolism was calculated from the disappearance of the test compound measured by liquid chromatography mass spectrometry (LC-MS), compared to that of 0-min control. After incubation, quench solutions including internal standards were added and analyzed by LC/MS. The elimination rate constant and intrinsic clearance (CLhepatocyte) values were calculated by linear regression of the compound elimination over the duration of incubation, normalized to the cell number in the given volume of incubation medium.

mutant HTT = assay: Mutant HTT assay in lymphoblastoid cells (LBC), Western blot; assay type: cell-based, human; settings: read-out: LBC IC20 (nM) mHTT, 3 days compound treatment
Procedure, shortened: as §1

SMILES	LBC viability at IC20 [1]	IC20 (wild-type HTT)	M2-8 Cell viability (M2-8 cells)	IC50 [2]	Mouse HepStability (CLhepatocyte) (mouse hepatocytes)	IC20 (mutant HTT)	elimination in in vitro hepatocyte stability assay (comparison) (mouse hepatocytes; compound #2 versus deuterated compound #42, FIG. 1A)
OCc1ccc(CNC2CCCc3c2[nH]c2ccc(Br)cc32)cc1 (stereo not shown) [Compound 1]	* (cell viability is greater than 60% at the concentration of IC20)	> 1000 nM	+ (cell viability is greater than 50% at the concentration of 1000 nM)	≤ 100 nM	C (CLhepatocyte >30 μl/min/10^6cells)	101 to 300 nM	–
OCCOCc1ccc(CN[C@@H]2CCCc3c2[nH]c2ccc(Br)cc32)cc1 (single isomer, unassigned) [Compound 28]	* (cell viability is greater than 60% at the concentration of IC20)	> 1000 nM	+ (cell viability is greater than 50% at the concentration of 1000 nM)	≤ 100 nM	A (CLhepatocyte <10 μl/min/10^6cells)	< 100 nM	–
OCc1ccc(CN[C@@H]2CCCc3c2[nH]c2ccc(Br)cc32)cc1 [Compound 2, (R)-(4-(((6-bromo-2,3,4,9-tetrahydro-1H-carbazol-1-yl)amino)methyl)phenyl)methanol]	* (cell viability is greater than 60% at the concentration of IC20)	> 250 nM	+ (cell viability is greater than 50% at the concentration of 1000 nM)	≤ 100 nM	C (CLhepatocyte >30 μl/min/10^6cells)	< 100 nM	more rapidly eliminated
[2H]C([2H])(O)c1ccc(CN[C@@H]2CCCc3c2[nH]c2ccc(Br)cc32)cc1 [Compound 42, (R)-(4-(((6-bromo-2,3,4,9-tetrahydro-1H-carbazol-1-yl)amino)methyl)phenyl)methan-d2-ol]	* (cell viability is greater than 60% at the concentration of IC20)	> 1000 nM	+ (cell viability is greater than 50% at the concentration of 1000 nM)	≤ 100 nM	C (CLhepatocyte >30 μl/min/10^6cells)	< 100 nM	–
CC(C)(O)c1ccc(CN[C@@H]2CCCc3c2[nH]c2ccc(Br)cc32)cc1 [Compound 31, (R)-2-(4-(((6-bromo-2,3,4,9-tetrahydro-1H-carbazol-1-yl)amino)methyl)phenyl)propan-2-ol]	* (cell viability is greater than 60% at the concentration of IC20)	> 250 nM	+ (cell viability is greater than 50% at the concentration of 1000 nM)	≤ 100 nM	A (CLhepatocyte <10 μl/min/10^6cells)	< 100 nM	–
CS(=N)(=O)c1ccc(CN[C@@H]2CCCc3c2[nH]c2ccc(Br)cc32)cc1 (stereo partly drawn) [Compound 49, (4-((((R)-6-bromo-2,3,4,9-tetrahydro-1H-carbazol-1-yl)amino)methyl)phenyl)(imino)(methyl)-λ^6-sulfanone]	* (cell viability is greater than 60% at the concentration of IC20)	> 500 nM	+ (cell viability is greater than 50% at the concentration of 1000 nM)	≤ 100 nM	B (CLhepatocyte 10-30 μl/min/10^6cells)	101 to 300 nM	–
